In patent US10526311B2 (ASTEX THERAPEUTICS LIMITED, priority 2015, dated 2020):
Where two headings read alike, the source gives them in different places.

Legend:
SN40R2 = test: Protocol B: SN40R2 CellTiter-Glo cell viability; conditions: 72 h
Description: Protocol B: SJSA-1 and SN40R2 Assays
(§1) The CellTiter-Glo® Luminescent Cell Viability Assay is a homogeneous method to determine the number of viable cells in culture based on quantitation of the ATP present, which signals the presence of metabolically active cells. […] 100 μl of CTG reagent (Promega #G7573) was added to all wells and luminescence was measured on the topcount. The EC50 values were determined from a sigmoidal 4 parameter curve fit using XLfit in conjunction with Activity Base (IDBS; Guildford, Surrey, UK).

[1] = system: SJSA-1 (MDM2 amplified, p53 wild-type osteosarcoma); test: Protocol A: SJSA-1 growth inhibition (SRB); conditions: Homo sapiens, SJSA-1, 72 h
Description: Protocol A: SJSA-1 and SN40R2 Assays
(§2) Following incubation with the SRB dye at room temperature for 30 min, the plates were washed with 1% acetic acid and left to dry. […] The GI50 was calculated by non-linear regression analysis of the data using Prism v4.0 statistical software.

[2] = system: SN40R2 (MDM2 amplified, p53 mutated osteosarcoma); test: Protocol A: SN40R2 growth inhibition (SRB); conditions: 72 h; for IC50: read-out: SN40R2 IC50 (μM) (Protocol A); for inhibition at 30 µM: read-out: SN40R2 (Protocol A) % at concentration
Description: Protocol A: SJSA-1 and SN40R2 Assays
as §2

SJSA-1 = test: Protocol B: SJSA-1 CellTiter-Glo cell viability
Description: Protocol B: SJSA-1 and SN40R2 Assays
as §1

[3] = target: MDM2-p53 interaction (in vitro translated MDM2, biotinylated IP3 peptide) (Homo sapiens, UniProt Q00987); test: MDM2-p53 interaction 96-well plate binding assay (ELISA)
Description: The ELISA assay was performed in streptavidin coated plates which were preincubated with 200 μl per well of 1 μg ml^−1 biotinylated IP3 peptide. The plates were ready to use for MDM2 binding after washing the plate with PBS.
The unbound secondary antibody was removed by washing three times with TBS-Tween. The bound HRP activity was measured by enhanced chemiluminesence (ECL™, Amersham Biosciences) using the oxidation of the diacylhydrazide substrate, luminol, to generate a quantifiable light signal. The percentage of MDM2 inhibition at a given concentration is calculated as the [1−(RLU detected in the compound treated sample−RLU negative DMSO control)÷(RLU of DMSO positive and negative controls)]×100 or as the (RLU detected in the compound treated sample÷RLU of DMSO controls)×100. The IC50 was calculated using a plot of % MDM2 inhibition vs concentration and is the average of two or three independent experiments.

[4] = read-out: SJSA-1 IC50 (μM) (Protocol A), SJSA-1, Protocol A (SRB), 72 hrs
[5] = Homo sapiens, SJSA-1, 72 h, read-out: SJSA1 IC50 (μM) (Protocol B), SJSA-1, Protocol B (CellTiter-Glo), 72 hrs
[6] = Homo sapiens, SJSA-1, 72 h, read-out: SJSA1 IC50 (Protocol B), SJSA-1 cells, CellTiter-Glo, 72 hrs
[7] = read-out: SN40R2 IC50 (Protocol B), SN40R2 cells, CellTiter-Glo, 72 hrs
[8] = read-out: SJSA1 IC50 (Protocol B), SJSA-1 cells, CellTiter-Glo, 72 hrs
[9] = read-out: SJSA-1 IC50 (Protocol A), SJSA-1 cells, SRB, 72 hrs

Chain of MDM2-p53 interaction (in vitro translated MDM2, biotinylated IP3 peptide) (Q00987 whole entry): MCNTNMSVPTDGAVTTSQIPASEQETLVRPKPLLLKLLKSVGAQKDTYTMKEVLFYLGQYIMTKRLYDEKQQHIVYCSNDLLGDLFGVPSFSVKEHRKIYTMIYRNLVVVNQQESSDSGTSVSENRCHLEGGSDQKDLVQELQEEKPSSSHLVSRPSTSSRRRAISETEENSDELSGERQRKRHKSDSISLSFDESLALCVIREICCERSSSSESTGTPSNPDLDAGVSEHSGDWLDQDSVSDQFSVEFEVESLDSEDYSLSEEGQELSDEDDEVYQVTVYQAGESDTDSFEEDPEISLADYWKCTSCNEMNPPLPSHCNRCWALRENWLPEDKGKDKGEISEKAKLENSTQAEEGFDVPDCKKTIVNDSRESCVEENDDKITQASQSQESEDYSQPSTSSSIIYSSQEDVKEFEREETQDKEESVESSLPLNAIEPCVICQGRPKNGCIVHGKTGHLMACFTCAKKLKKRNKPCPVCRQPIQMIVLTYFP

CO[C@]1(c2ccc(Cl)cc2)c2c(F)cc(C(C)(O)c3cnn(C4CN(C(=O)OC(C)(C)C)C4)c3)cc2C(=O)N1Cc1ccc(Cl)cn1 (single isomer, unassigned) [Example 458]
IC50 (SN40R2; read-out: SN40R2 IC50 (μM) (Protocol B)): 12 µM

CCC(O)(c1cc(F)c2c(c1)C(=O)N(Cc1ccc(C#N)cn1)[C@@]2(OC)c1ccc(Cl)cc1)[C@H]1CC[C@H](O)CC1 (single isomer, unassigned) [Example 521]
IC50 [1, 4]: 0.035 µM | IC50 [2]: 37 µM | IC50 (SJSA-1; [5]): 0.033 µM

CC[C@@](O)(c1cc(F)c2c(c1)C(=O)N(Cc1ncc(Cl)cn1)[C@@]2(OCC1(CO)CC1)c1ccc(Cl)cc1)C1CCN(C)CC1 [Example 556, (3R)-3-(4-chlorophenyl)-2-[(5-chloropyrimidin-2-yl)methyl]-4-fluoro-6-[(1S)-1-hydroxy-1-(1-methylpiperidin-4-yl)propyl]-3-{[1-(hydroxymethyl)cyclopropyl]methoxy}-2,3-dihydro-1H-isoindol-1-one]
IC50 [1, 4]: 0.056 µM | IC50 [2]: 27 µM | IC50 (SJSA-1; [5]): 0.0064 µM

CC(O)(c1cc(F)c2c(c1)C(=O)N(Cc1ccc(Cl)cn1)[C@@]2(OCC1(C#N)CC1)c1ccc(Cl)cc1)C1CCN(CCO)CC1 (single isomer, unassigned) [Example 420]
IC50 (SN40R2; read-out: SN40R2 IC50 (Protocol B)): 4.4 µM | IC50 (SJSA-1; [6]): 0.87 µM

CCC(O)(c1cc(F)c2c(c1)C(=O)N(Cc1ccc(C#N)cn1)[C@@]2(OC[C@@H](C)O)c1ccc(Cl)cc1)C1(F)CCOCC1 (single isomer, unassigned) [Example 497]
IC50 [1, 4]: 0.039 µM | IC50 [2]: 45 µM | IC50 (SJSA-1; [5]): 0.046 µM

CCC(O)(c1cc(F)c2c(c1)C(=O)N(Cc1ncc(Cl)cn1)[C@@]2(OCCO)c1ccc(Cl)cc1)C1(F)CCN(C)CC1 (single isomer, unassigned) [Example 565]
IC50 [1, 4]: 0.045 µM | IC50 [2]: 33 µM | IC50 (SJSA-1; [5]): 0.035 µM

CCC(O)(c1cc(F)c2c(c1)C(=O)N(Cc1ncc(C#N)cn1)[C@@]2(OC)c1ccc(Cl)cc1)[C@H]1CC[C@H](O)CC1 (stereo partly drawn) [Example 504, 2-{[(1R)-1-(4-chlorophenyl)-7-fluoro-5-{1-hydroxy-1-[trans-4-hydroxycyclohexyl]propyl}-1-methoxy-3-oxo-2,3-dihydro-1H-isoindol-2-yl]methyl}pyrimidine-5-carbonitrile]
IC50 [1, 4]: 0.039 µM | IC50 [2]: 48 µM | IC50 (SJSA-1; [5]): 0.034 µM

CCC(O)(c1cc(F)c2c(c1)C(=O)N(Cc1ncc(Cl)cn1)[C@@]2(OC)c1ccc(Cl)cc1)C1(F)CCNCC1 (single isomer, unassigned) [Example 544]
IC50 [1, 4]: 0.032 µM | IC50 [2]: 7.4 µM | IC50 (SJSA-1; [5]): 0.041 µM

CCC(O)(c1cc(F)c2c(c1)C(=O)N(Cc1ncc(Cl)cn1)[C@@]2(OC)c1ccc(Cl)cc1)C1(F)CCN(C2COC2)CC1 (single isomer, unassigned) [Example 552]
IC50 [1, 4]: 0.028 µM | IC50 [2]: 21 µM | IC50 (SJSA-1; [5]): 0.02 µM

CCC(O)(c1cc(F)c2c(c1)C(=O)N(Cc1ncc(Cl)cc1O)[C@@]2(O[C@H]1C[C@@H](O)C1)c1ccc(Cl)cc1)c1cn(C)cn1 (single isomer, unassigned) [Example 487]
IC50 [1, 4]: 0.12 µM | IC50 [2]: 27 µM | IC50 (SJSA-1; [5]): 0.025 µM

CCC(O)(c1cc(F)c2c(c1)C(=O)N(Cc1ncc(Cl)cn1)[C@@]2(O[C@H]1CCOC1)c1ccc(Cl)cc1)C1CCN(C)CC1 (single isomer, unassigned) [Example 449]
IC50 [1, 4]: 0.041 µM | IC50 [2]: 18 µM | IC50 (SJSA-1; [5]): 0.012 µM

CCC(O)(c1cc(F)c2c(c1)C(=O)N(Cc1ccc(Cl)cn1)[C@@]2(O[C@H]1CCOC1)c1ccc(Cl)cc1)C1(F)CCNCC1 (single isomer, unassigned) [Example 548]
IC50 [1, 4]: 0.14 µM | IC50 [2]: 6.3 µM | IC50 (SJSA-1; [5]): 0.17 µM

CO[C@]1(c2ccc(Cl)cc2)c2c(F)cc(C(C)(O)C3CN(C)C3)cc2C(=O)N1Cc1ccc(Cl)cn1 (single isomer, unassigned) [Example 307]
IC50 (SN40R2; [7]): 11 µM | IC50 (SJSA-1; [6]): 1.9 µM

CC[C@@](O)(c1cc(F)c2c(c1)C(=O)N(Cc1ncc(Cl)cn1)[C@@]2(OC)c1ccc(Cl)cc1)C1CCN(C2COC2)CC1 [Example 551, (3R)-3-(4-chlorophenyl)-2-[(5-chloropyrimidin-2-yl)methyl]-4-fluoro-6-[(1S)-1-hydroxy-1-[1-(oxetan-3-yl)piperidin-4-yl]propyl]-3-methoxy-2,3-dihydro-1H-isoindol-1-one]
IC50 [1, 4]: 0.031 µM | IC50 [2]: 36 µM

CO[C@]1(c2ccc(Cl)cc2)c2c(F)cc(C(C)(O)c3nccs3)cc2C(=O)N1Cc1ccc(Cl)cn1 (stereo partly drawn) [Example 165, (3R)-3-(4-Chlorophenyl)-2-[(5-chloropyridin-2-yl)methyl]-4-fluoro-6-[1-hydroxy-1-(1,3-thiazol-2-yl)ethyl]-3-methoxy-2,3-dihydro-1H-isoindol-1-one]
IC50 (SN40R2; [7]): 13 µM | IC50 (SJSA-1; [8]): 1.4 µM

CO[C@]1(c2ccc(Cl)cc2)c2c(F)cc(C(C)(O)c3cn(C)c(C)n3)cc2C(=O)N1Cc1ccc(Cl)cn1 (single isomer, unassigned) [Example 162]
IC50 (SN40R2; [7]): 13 µM | IC50 (SJSA-1; [8]): 0.22 µM

CC(C)(O)c1cc(F)c2c(c1)C(=O)N(Cc1ccc(C#N)cn1)[C@@]2(OCC1(CO)CC1)c1ccc(Cl)cc1 [Example 36, 6-{[(1R)-1-(4-chlorophenyl)-7-fluoro-1-{[1-(hydroxymethyl)cyclopropyl]methoxy}-5-(2-hydroxypropan-2-yl)-3-oxo-2,3-dihydro-1H-isoindol-2-yl]methyl}pyridine-3-carbonitrile]
IC50 [1, 9]: 0.21 µM | inhibition at 30 µM [2]: 13% | IC50 (SJSA-1; [6]): 0.18 µM | IC50 [3]: 5.1 nM

CCC(O)(c1cc(F)c2c(c1)C(=O)N(Cc1ncc(C#N)cn1)[C@@]2(OCC1(C#N)CC1)c1ccc(Cl)cc1)C1(F)CCN(C)CC1 (single isomer, unassigned) [Example 574]
IC50 [1, 4]: 0.021 µM | IC50 [2]: 17 µM | IC50 (SJSA-1; [5]): 0.016 µM

CN1CCC(C(C)(O)c2cc(F)c3c(c2)C(=O)N(Cc2ncc(Cl)cn2)[C@@]3(OCC2(F)COC2)c2ccc(Cl)cc2)CC1 (single isomer, unassigned) [Example 558]
IC50 [1, 4]: 0.22 µM | IC50 [2]: 35 µM | IC50 (SJSA-1; [5]): 0.082 µM

[2H]C([2H])(O)C1(C([2H])([2H])O[C@]2(c3ccc(Cl)cc3)c3c(F)cc(C(C)(C)O)cc3C(=O)N2Cc2ccc(C#N)cn2)CC1 [Example 5, 6-{[(1R)-1-(4-Chlorophenyl)-7-fluoro-1-({1-[hydroxy(^2H2)methyl]cyclopropyl}(^2H2)methoxy)-5-(2-hydroxypropan-2-yl)-3-oxo-2,3-dihydro-1H-isoindol-2-yl]methyl}pyridine-3-carbonitrile]
IC50 [1, 9]: 0.2 µM | inhibition at 30 µM [2]: 20% | IC50 (SJSA-1; [6]): 0.28 µM | IC50 [3]: 3.8 nM

CCC(O)(c1cc(F)c2c(c1)C(=O)N(Cc1ncc(C#N)cn1)[C@@]2(O[C@H]1CCOC1)c1ccc(Cl)cc1)C1(F)CCN(C)CC1 (single isomer, unassigned) [Example 561]
IC50 [1, 4]: 0.021 µM | IC50 [2]: 26 µM | IC50 (SJSA-1; [5]): 0.065 µM

CO[C@]1(c2ccc(Cl)cc2)c2c(F)cc(C(C)(O)C3CCN(C)CC3)cc2C(=O)N1Cc1ccc(Cl)cn1 (single isomer, unassigned) [Example 304]
IC50 (SN40R2; [7]): 9 µM

CO[C@]1(c2ccc(Cl)cc2)c2c(F)cc(C(C)(O)C3CCN(C(=O)CN(C)C)CC3)cc2C(=O)N1Cc1ccc(Cl)cn1 (stereo partly drawn) [Example 299, (3R)-3-(4-chlorophenyl)-2-[(5-chloropyridin-2-yl)methyl]-6-(1-{1-[2-(dimethylamino)acetyl]piperidin-4-yl}-1-hydroxyethyl)-4-fluoro-3-methoxy-2,3-dihydro-1H-isoindol-1-one]
IC50 (SN40R2; [7]): 8 µM | IC50 (SJSA-1; [6]): 2 µM

CCC(O)(c1cc(F)c2c(c1)C(=O)N(Cc1ncc(Cl)cn1)[C@@]2(O[C@H]1CCOC1)c1ccc(Cl)cc1)C1(F)CCN(C)CC1 (single isomer, unassigned) [Example 571]
IC50 [1, 4]: 0.023 µM | IC50 [2]: 17 µM | IC50 (SJSA-1; [5]): 0.0085 µM

CCC(O)(c1cc(F)c2c(c1)C(=O)N(Cc1ncc(C#N)cn1)[C@@]2(OC)c1ccc(Cl)cc1)C1(F)CCN(C)CC1 (single isomer, unassigned) [Example 575]
IC50 [1, 4]: 0.028 µM | IC50 [2]: 21 µM | IC50 (SJSA-1; [5]): 0.066 µM

CCC(O)(c1cc(F)c2c(c1)C(=O)N(Cc1ccc(C#N)cn1)[C@@]2(O[C@H]1CCOC1)c1ccc(Cl)cc1)c1ccn(C)n1 (single isomer, unassigned) [Example 336]
IC50 [1, 4]: 0.1 µM | IC50 [2]: 42 µM

CO[C@]1(c2ccc(Cl)cc2)c2c(F)cc(C(C)(O)C3CCN(c4ncccn4)CC3)cc2C(=O)N1Cc1ccc(Cl)cn1 (stereo partly drawn) [Example 286, (3R)-3-(4-chlorophenyl)-2-[(5-chloropyridin-2-yl)methyl]-4-fluoro-6-{1-hydroxy-1-[1-(pyrimidin-2-yl)piperidin-4-yl]ethyl}-3-methoxy-2,3-dihydro-1H-isoindol-1-one]
IC50 (SN40R2; [7]): 12 µM

CO[C@]1(c2ccc(Cl)cc2)c2c(F)cc(C(C)(O)c3ncc[nH]3)cc2C(=O)N1Cc1ccc(Cl)cn1 (stereo partly drawn) [Example 163, (3R)-3-(4-chlorophenyl)-2-[(5-chloropyridin-2-yl)methyl]-4-fluoro-6-[1-hydroxy-1-(1H-imidazol-2-yl)ethyl]-3-methoxy-2,3-dihydro-1H-isoindol-1-one]
IC50 (SN40R2; [7]): 13 µM | IC50 (SJSA-1; [6]): 3.1 µM
